Data from ChEMBL document CHEMBL1143273, “Structure-based hybridization of the bioactive natural products rhizonin A and ternatin leading to a selective fat-accumulation inhibitor against 3T3-L1 adipocytes” (Bioorg Med Chem Lett, 2009).
Non-standard residues stand in square brackets, D forms with d. Residues, ends and D or L forms follow the SMILES beside them. d(aIle) = CC[C@H](C)[C@@H](N)C(=O)O; NMeF = CN[C@@H](Cc1ccccc1)C(=O)O; dNMeF = CN[C@H](Cc1ccccc1)C(=O)O; NMeA = CN[C@@H](C)C(=O)O

Key:
[1] = system: 3T3-L1; assay: Inhibition of fat-accumulation in mouse 3T3L1 cells; assay type: functional, cell-based
[2] = system: 3T3-L1; assay: Selectivity index, ratio of IC50 for mouse 3T3L1 cells to IC50 for fat-accumulation in mouse 3T3L1 cells; assay type: functional
[3] = system: 3T3-L1; assay: Cytotoxicity against mouse 3T3L1 cells; assay type: cell-based
[4] = system: 3T3-L1; assay: Cytotoxicity against mouse 3T3L1 cells at 62 uM; assay type: cell-based; conditions: 3t3-l1, 62 µM

Row | Structure (SMILES) | IC50 [1] [µM] | Ratio IC50 [2] | IC50 [3] [µM] | Activity [4] [%]
1 | CC[C@H](C)[C@H]1NC(=O)[C@@H](Cc2ccccc2)N(C)C(=O)[C@H](C)N(C)C(=O)[C@H](CC(C)C)NC(=O)[C@H](Cc2ccccc2)N(C)C(=O)[C@H](C(C)C)NC(=O)[C@@H](C(C)C)NC1=O (cyclo(L[NMeA][dNMeF][d(aIle)][dV]V[NMeF])) | 42 | >12.3 | > 240 | –
2 | CC[C@H](C)[C@H]1NC(=O)[C@@H](Cc2ccoc2)N(C)C(=O)[C@H](C)N(C)C(=O)[C@H](CC(C)C)NC(=O)[C@H](Cc2ccoc2)N(C)C(=O)[C@H](C(C)C)NC(=O)[C@@H](C(C)C)NC1=O [RHIZONIN A] | 55 | 1 | 62 | 70
